Measured values: US9856259B2, “Heterocyclic compounds and uses thereof” (Plexxikon Inc., priority 2014, dated 2018)

Key:
BRD4-BD12 = biological target: T1, BRD4-BD12 (Homo sapiens, UniProt O60885); test: Alphascreen binding assay, BRD4(1 2) H4; settings: BRD4 dual bromodomains with acetylated Histone 4 peptide, read-out: Biochemical activity (IC50 μM) BRD4(1 2) H4
T1 construct: dual bromodomains (BRD4-BD12 (1-477), BRD4-BD12 (1-472)); six-His tag (N); made in house; host or cells: E. coli BL21-CodonPlus (DE3)
Protocol: Binding of compounds of formula (I) with bromodomain 2, 3 4 was assessed using Alphascreen binding assay. The inhibition of the interaction between bromodomain and its acetylated target protein (Filippakopoulos P et al. 2012) was measured quantitatively using recombinant BRD proteins, an acetylated Histone 4 peptide and AlphaScreen™ technology. In absence of inhibition the BRD protein bound to AlphaScreen™ nickel chelate acceptor beads can interact with the acetylated Histone 4 peptide which is immobilized by the AlphaScreen™ Streptavidin coated beads. This interaction brings donor and acceptor beads in proximity. The close proximity allows the singlet oxygen produced by laser excitation of the donor beads to reach the acceptor beads and generate a luminescence signal. BRD inhibitors result in a decrease in the proximity signal through an inhibition of the BRD acetylated peptide interaction.
Recombinant human bromodomains containing the N-terminal bromodomain (BRD2-BD1 (71-194), BRD3-BD1 (24-144) and BRD4-BD1 (44-164)) or dual bromodomains (BRD4-BD12 (1-477), BRD4-BD12 (1-472)) were prepared and purified as described in protein expression and purification session. The peptide is human Histone H41-21K5AcK8AcK12AcK16Ac-Biotin (Anaspec Calif., USA).
Protocol for BRD2, BRD3 and BRD4 assay: All components are prepared in buffer composed of 50 mM HEPES pH 7.5, 100 mM NaCl, 0.01% BSA, 0.01% Triton X-100, 2 mM DTT. 7 μL of Bromodomain protein and 7 μL of peptide are added to wells containing 1 μL of various concentrations of test compounds of formula (I) or DMSO vehicle in an Alphaplate (PerkinElmer Ga., USA) and incubated for 1 hour at room temperature. 4 μL donor and acceptor bead mixture is then added with final concentrations of 7.5 μg/ml. 30 minutes after bead addition, Alpha signal is read on the Envision spectrometer (λEx 680 nm, λEm 520-620 nm). Final concentrations of bromodomain proteins and peptide are as shown below.
All data was normalized to the mean of 16 high and 16 low control wells on each plate. A four parameter curve fit of the following formula was then applied: Y=a+(b−a)/(1+(x/c)^d) Where ‘a’ is the minimum, ‘b’ is the maximum, ‘c’ is the pIC50 and ‘d’ is the Hill slope. Protein Expression and Purification
Recombinant human bromodomains containing the N-terminal bromodomain (BRD2-BD1 (71-194), BRD3-BD1 (24-144) and BRD4-BD1 (44-164)) or dual bromodomains (BRD4-BD12 (1-477), BRD4-BD12 (1-472)) were expressed in E. coli cells (in a modified pET vector) with an N-terminal six-His tag and purified using a combination of both IMAC (Ni-affinity) and size exclusion chromatography steps.
Recombinant BRD proteins were expressed using the E. coli strain BL21-CodonPlus (DE3) (Agilent Technologies CA, USA). Cells were grown in Terrific Broth (TB) media to an OD600 of 1.2 at 37° C. at which temperature was reduced to 25° C., protein was induced with 1.0 mM IPTG for 12-18 hours and harvested by centrifugation at 8000×g for 20 minutes. Cells were re-suspended in 0.1M KPO4 pH 8.0, 250 mM NaCl, 10% Glycerol, 0.75% NP-40, 25 mM Imidazole, 5 mM BME with 0.2 mg/ml Lysosyme, 2.0 mM PMSF, 25 μg/ml DNAse I, incubated on ice for 30 minutes and lyzed with a cell disruptor (MicroFluidics MA, USA). The lysate was clarified by centrifugation at 20,000×g for 2 hours. The protein was captured with Ni-NTA resin (Life Technologies, USA). Contaminating proteins were washed off with 25 mM Tris-HCl pH 8.3, 250 mM NaCl, 12% Glycerol and 50 mM Imidazole. Following 3× wash steps, protein was eluted step wise using a 50 mM HEPES pH 7.5, 500 mM NaCl and 400 mM Imidazole. The protein was further purified using Gel Filtration column 26/600 Superdex 200 (GE Biosciences N.J., USA) in 50 mM HEPES pH 7.5, 250 mM NaCl. The protein was aliquoted and flash-frozen in liquid Nitrogen.

MV-4-11 = test: Oncology cell growth assay, MV-4-11 3 d growth; type: cell-based; settings: Homo sapiens, MV4-11; MV-4-11 cells, 72 hours, CellTiter Glo; read-out: Cell activity (IC50 μM) MV-4-11 3 d-Growtb
Protocol: (§1) In this study, we test compounds in different cancer cell lines. MV-4-11 and MOLM-13 are AML cell lines harboring a MLL-AF4 and MLL-AF9 translocation, respectively. MM.1S is a multiple myeloma cell line. SK—N-AS, IMR-32 and SK-N-BE(2) are neuroblastoma cell lines. IMR-32 and SK-N-BE(2) cell lines harbor MYCN amplifications.
(§2) MV-4-11, MM.1S, IMR-32, SK-N-AS and SK-N-BE(2) were obtained from ATCC (IL, USA) and MOLM-13 were purchased from DSMZ (Braunschweig, German). Cells are cultured as recommended by their sources. For growth inhibition studies 3000 cells are seeded in wells of a 96-well plate in 75 μL of culture media. After several hours, growth media containing compounds of formula (I) are added to the wells. Compound at a maximal concentration of 5 mM was serially diluted 1:3 for a total of 8 point titration with DMSO as a control. A 1 μL aliquot of each dilution point is added to 249 μL growth media and 75 μL is added to each well containing cells, providing 10 μM compound at the maximum concentration point. The final concentration of DMSO in all wells is 0.2%. Cells are incubated for 72 hours, and 25 μL of CellTiter Glo Reagent (Promega Ga., USA) is added to each well. Plates are shaken for approximately 10 minutes and chemiluminescent signal is read on Tecan microplate reader. The measured luminescence correlates directly with cell number.
(§3) All data is normalized to the mean of eight DMSO high control wells on each plate. A four parameter curve fit of the following formula was then applied: Y=a+(b−a)/(1+(x/c)^d) Where ‘a’ is the minimum, ‘b’ is the maximum, ‘c’ is the pIC50 and ‘d’ is the Hill slope. […] Myc Reporter Assay

[1] = tested on: cancer cell lines / MV-4-11 Myc reporter cell line; test: Bromodomain cell assays of Example 8 (at least one of them); type: cell-based; settings: Homo sapiens, MV4-11; at least one of the bromodomain cell assays described in Example 8
Protocol: as §1, §2, §3
In MV-4-11 cells, BRD2, BRD3 and BRD4 bind to the promoter region of MYC and regulate its transcription (Dawson M A et al. 2011). The literature bromodomain inhibitor iBET 151 could disrupt BRD4 recruitment to the MYC promoter and subsequently downregulate c-myc transcription (Dawson M A et al. 2011). Myc protein is a transcription factor that heterodimerizes with an obligatory partner Max and regulates the transcription of genes important for cell proliferation, differentiation, and apoptosis. This Myc reporter assay is used to monitor the inhibitory effect of compound of formula (I) on Myc dependent gene expression. Effective compounds could have potential therapeutic effects in Myc-driven tumors.
The MV-4-11 Myc reporter cell line is established by infecting MV-4-11 with VSV-g pseudotyped lentivirus expressing the firefly luciferase gene under the control of a minimal (m) CMV promoter and tandem repeats of the E-box transcriptional response element (TRE) (Qiagen IL, USA) and selecting cells in 2.5 μg/ml Puromycin.
The MV-4-11 Myc reporter cell line is maintained in Iscove's Modified Dulbecco's Medium containing 10% FBS, 1% PenStep and 2.5 μg/ml Puromycin. Cells are incubated at 37° C. in a humidified atmosphere with 5% CO2. 25,000 cells are seeded in 96-well plate in 50 μL of culture media. After several hours, growth media containing 2× compounds are added to the wells. Compound at a maximal concentration of 5 mM is serially diluted 1:3 for a total of 8 point titration. A 1 μl aliquot of each dilution point is added to 249 μl growth media and 50 μl is added to each well containing cells, providing 10 μM compound at the maximum concentration point. DMSO treated cells serve as a high control and 10 μM JQ1 treated cells serve as a low control. Cells are incubated for a further 24 hours and 25 μL of CellTiter-Fluo Reagent (Promega Ga., USA) is added to each well. Plates are shaken for approximately 2 minutes and incubated at 37° C. for 0.5 hour. Fluorescence signal is read in a Tecan Plate reader (λex=400 nm, λcm=505 nm). 25 μL of One-Glo Reagent (Promega Ga., USA) is then added to the plates. Chemiluminescent signal is read on Tecan plate reader. Values from the wells with no cells are subtracted from all samples for background correction. […]

Row | SMILES | IC50 (BRD4-BD12) [µM] | IC50 (MV-4-11) [µM] | IC50 [1] [nM]
1 | Cc1noc(C)c1-c1cnc2c(-c3ccc(CC(=O)O)cc3)cn(C(c3ccccc3)c3ccccn3)c2n1 (stereo not drawn) [Compound P-2048, 2-[4-[3-(3,5-dimethylisoxazol-4-yl)-5-[phenyl(2-pyridyl)methyl]pyrrolo[2,3-b]pyrazin-7-yl]phenyl]acetic acid] | ≤ 1 | ≤ 1 | < 10000
2 | COC(=O)Cc1ccc(-c2nn(C(c3ccccc3)c3ccccn3)c3cc(-c4c(C)noc4C)ccc23)cc1 (stereo not drawn) [Compound P-2008, methyl 2-[4-[6-(3,5-dimethylisoxazol-4-yl)-1-[phenyl(2-pyridyl)methyl]indazol-3-yl]phenyl]acetate] | ≤ 1 | ≤ 1 | < 10000
3 | Cc1noc(C)c1-c1cnc2c(-c3ccc(C#N)nc3)cn([C@@H](C)c3ccccn3)c2n1 [Compound P-2055, 5-[3-(3,5-dimethylisoxazol-4-yl)-5-[(1S)-1-(2-pyridyl)ethyl]pyrrolo[2,3-b]pyrazin-7-yl]pyridine-2-carbonitrile] | ≤ 1 | ≤ 1 | < 10000
4 | Cc1noc(C)c1-c1cnc2c(-c3cnn(CC(F)(F)F)c3)nn(CC3CC(F)(F)C3)c2c1 [Compound P-2087, 4-[1-[(3,3-difluorocyclobutyl)methyl]-3-[1-(2,2,2-trifluoroethyl)pyrazol-4-yl]pyrazolo[4,3-b]pyridin-6-yl]-3,5-dimethyl-isoxazole] | ≤ 1 | ≤ 1 | < 10000
5 | Cc1noc(C)c1-c1ccc2c(-c3ccc(C(=O)O)cc3)nn([C@@H](C)c3ccccn3)c2c1 [Compound P-2013, 4-[6-(3,5-dimethylisoxazol-4-yl)-1-[(1S)-1-(2-pyridyl)ethyl]indazol-3-yl]benzoic acid] | ≤ 1 | ≤ 1 | < 10000
6 | [2H]C([2H])(C1CCC(F)(F)CC1)n1cc(-c2ccc(C(=O)O)cc2)c2ncc(-c3c(C)noc3C)nc21 [Compound P-2044, 4-[5-[dideuterio-(4,4-difluorocyclohexyl)methyl]-3-(3,5-dimethylisoxazol-4-yl)pyrrolo[2,3-b]pyrazin-7-yl]benzoic acid] | ≤ 1 | ≤ 1 | < 10000
7 | Cc1nnn(C)c1-c1cnc2c(-c3cnn(C)c3)nn(CC3CCC(F)(F)CC3)c2c1 [Compound P-2090, 1-[(4,4-difluorocyclohexyl)methyl]-6-(3,5-dimethyltriazol-4-yl)-3-(1-methylpyrazol-4-yl)pyrazolo[4,3-b]pyridine] | ≤ 1 | ≤ 1 | < 10000
8 | [2H]C([2H])(C1CCC(F)(F)CC1)n1cc(-c2cnn(C)c2)c2ncc(-c3c(C)noc3C)nc21 [Compound P-2040, 4-[5-[dideuterio-(4,4-difluorocyclohexyl)methyl]-7-(1-methylpyrazol-4-yl)pyrrolo[2,3-b]pyrazin-3-yl]-3,5-dimethyl-isoxazole] | ≤ 1 | ≤ 1 | < 10000
9 | Cc1noc(C)c1-c1cnc2c(I)nn(CC3CCC(F)(F)CC3)c2c1 [Compound P-2080, 4-[1-[(4,4-difluorocyclohexyl)methyl]-3-iodo-pyrazolo[4,3-b]pyridin-6-yl]-3,5-dimethyl-isoxazole] | ≤ 1 | ≤ 1 | < 10000
10 | Cc1noc(C)c1-c1ccc2c(I)nn(C(c3ccccc3)c3ccccn3)c2c1 (stereo not drawn) [Compound P-2003, 4-[3-iodo-1-[phenyl(2-pyridyl)methyl]indazol-6-yl]-3,5-dimethyl-isoxazole] | ≤ 1 | ≤ 1 | < 10000
11 | Cc1noc(C)c1-c1cnc2c(-c3ccc(C4(C(=O)O)CC4)cc3)cn([C@@H](C)c3ccccn3)c2n1 [Compound P-2054, 1-[4-[3-(3,5-dimethylisoxazol-4-yl)-5-[(1S)-1-(2-pyridyl)ethyl]pyrrolo[2,3-b]pyrazin-7-yl]phenyl]cyclopropanecarboxylic acid] | ≤ 1 | ≤ 1 | < 10000
